Columns and labels:
SW-403 cells = experiment: MTT cell proliferation assay; assay type: cell-based; settings: Homo sapiens, 72-hour MTT
Method: (§1) The MTT cell proliferation assay was used to study the cytotoxic properties of the compounds. The assay was performed according to the method described by Roche Molecular Biochemicals, with minor modifications. The assay is based on the cleavage of the tetrazolium salt, MTT, in the presence of an electron-coupling reagent. The water-insoluble formazan salt produced must be solubilized in an additional step. Cells grown in a 96-well tissue culture plate were incubated with the MTT solution for approximately 4 hours. After this incubation period, a water-insoluble formazan dye formed. After solubilization, the formazan dye was quantitated using a scanning multi-well spectrophotometer (ELISA reader). […] The cells were seeded at 5,000-10,000 cells in each well of 96-well plate in 100 μL of fresh culture medium and were allowed to attach overnight. The stock solutions of the compounds were diluted in 100 μL cell culture medium to obtain eight concentrations of each test compound, ranging from 1 nM to 30 μM. […] All optical densities were measured at 490 nm using a Vmax Kinetic Microplate Reader (Molecular Devices). In most cases, the assay was performed in duplicate and the results were presented as a mean percent inhibition to the negative control±SE. The following formula was used to calculate the percent of inhibition: Inhibition (%)=(1−(ODo/OD))×100.
(§2) Compounds 504, 510, 525 and 585 were further tested against selected solid and hematological cancer cell lines and selected normal cell lines in a 72-hour MTT cell proliferation assay.

MCF-12A cells = experiment: MTT cell proliferation assay; assay type: cell-based; settings: Homo sapiens, 72-hour MTT
Method: as §1, §2

ANBL-6 cells = experiment: MTT cell proliferation assay; assay type: cell-based; settings: Homo sapiens, 72-hour MTT
Method: as §1, §2

SW-837 cells = experiment: MTT cell proliferation assay; assay type: cell-based; settings: Homo sapiens, SW837, 72-hour MTT
Method: as §1, §2

ARPE-19 cells = experiment: MTT cell proliferation assay; assay type: cell-based; settings: Homo sapiens, 72-hour MTT
Method: as §1, §2

NCI-H889 cells = experiment: MTT cell proliferation assay; assay type: cell-based; settings: Homo sapiens, 72-hour MTT
Method: as §1, §2

HeLa cells = experiment: MTT cell proliferation assay; assay type: cell-based; settings: Homo sapiens, 72-hour MTT
Method: as §1, §2

NCI-H187 cells = experiment: MTT cell proliferation assay; assay type: cell-based; settings: Homo sapiens, 72-hour MTT
Method: as §1, §2

BL-2 cells = experiment: MTT cell proliferation assay; assay type: cell-based; settings: BL2, 72-hour MTT
Method: as §1, §2

Raji cells = experiment: MTT cell proliferation assay; assay type: cell-based; settings: Homo sapiens, 72-hour MTT
Method: as §1, §2

Colo-201 cells = experiment: MTT cell proliferation assay; assay type: cell-based; settings: Homo sapiens, 72-hour MTT
Method: as §1, §2

NCI-H508 cells = experiment: MTT cell proliferation assay; assay type: cell-based; settings: Homo sapiens, 72-hour MTT
Method: as §1, §2

PL-45 cells = experiment: MTT cell proliferation assay; assay type: cell-based; settings: PL45, 72-hour MTT
Method: as §1, §2

U-266 cells = experiment: MTT cell proliferation assay; assay type: cell-based; settings: Homo sapiens, 72-hour MTT
Method: as §1, §2

SHSY5Y cells = experiment: MTT cell proliferation assay; assay type: cell-based; settings: Homo sapiens, SH-SY5Y, 72-hour MTT
Method: as §1, §2

NCI-H1299 cells = experiment: MTT cell proliferation assay; assay type: cell-based; settings: Homo sapiens, 72-hour MTT
Method: as §1, §2

SHP-77 cells = experiment: MTT cell proliferation assay; assay type: cell-based; settings: Homo sapiens, SHP77, 72-hour MTT
Method: as §1, §2

HEL.92.1.7 cells = experiment: MTT cell proliferation assay; assay type: cell-based; settings: Homo sapiens, 72-hour MTT
Method: as §1, §2

NCI-H2122 cells = experiment: MTT cell proliferation assay; assay type: cell-based; settings: Homo sapiens, 72-hour MTT
Method: as §1, §2

PBMC = experiment: MTT cell proliferation assay; assay type: cell-based; settings: 72-hour MTT
Method: as §1, §2

NCI-H1993 cells = experiment: MTT cell proliferation assay; assay type: cell-based; settings: Homo sapiens, 72-hour MTT
Method: as §1, §2

DU-4475 cells = experiment: MTT cell proliferation assay; assay type: cell-based; settings: Homo sapiens, 72-hour MTT
Method: as §1, §2

K562 cells = experiment: MTT cell proliferation assay; assay type: cell-based; settings: Homo sapiens, 72-hour MTT
Method: as §1, §2

DoHH-2 cells = experiment: MTT cell proliferation assay; assay type: cell-based; settings: Homo sapiens, 72-hour MTT
Method: as §1, §2

BT-20 cells = experiment: MTT cell proliferation assay; assay type: cell-based; settings: Homo sapiens, 72-hour MTT
Method: as §1, §2

NCI-H28 cells = experiment: MTT cell proliferation assay; assay type: cell-based; settings: Homo sapiens, 72-hour MTT
Method: as §1, §2

MCF7 cells = experiment: MTT cell proliferation assay; assay type: cell-based; settings: Homo sapiens, 72-hour MTT
Method: as §1, §2

MM1R cells = experiment: MTT cell proliferation assay; assay type: cell-based; settings: MM.1R, 72-hour MTT
Method: as §1, §2

HCC-202 cells = experiment: MTT cell proliferation assay; assay type: cell-based; settings: HCC202, 72-hour MTT
Method: as §1, §2

NCI-H2030 cells = experiment: MTT cell proliferation assay; assay type: cell-based; settings: Homo sapiens, 72-hour MTT
Method: as §1, §2

CAPAN-1 cells = experiment: MTT cell proliferation assay; assay type: cell-based; settings: Homo sapiens, 72-hour MTT
Method: as §1, §2

Z-138 xenografts = experiment: Z-138 mantle cell lymphoma xenograft in SCID mice; assay type: in vivo; design: toxicity (side effects, weight loss): dose or concentration left out as unconfirmed
Method: The impact of Compound 585 on tumor growth was tested using a Z-138 mantle cell lymphoma cancer xenograft model in SCID mice. Z-138 (ATCC #CRL-3001) mantle cell lymphoma cells were obtained from ATCC. These cells were grown in IMEM medium supplemented with 10% horse serum, 1% penicillin and streptomycin, and 2 mM L-glutamine. Cells were sub-cultured by dilution at a ratio of 1:5 to 1:10. Z-138 cells were harvested by centrifugation and counted using a hemocytometer. Cells were resuspended in PBS at a 2×10^8 cells per mL. Cells were placed on ice and mixed with an equal volume of Matrigel (BD Biosciences CB-40234). This mixture was kept on ice and injected into the left flank of mice in a volume of 0.2 mL, equivalent to 2×10^7 cells per mouse. Forty (40) CB-17 SCID mice were inoculated subcutaneously in the left flank with 2×10^7 Z-138 cells. Treatment was initiated when the tumors reached a mean volume of 125.2 mm^3. Mice were allocated to five (5) groups of eight (8) mice such that mean tumor volume in each group was within the range of 106.5 to 138.8 mm^3. Mice were treated with vehicle, standard of care/positive control drug (cyclophosphamide), or Compound 585. […] Animal weights and conditions were recorded daily, and tumors were measured on Mondays, Wednesdays and Fridays.

Question: Which IC50 (SW-403 cells) does the source give for `Nc1ccc(/C=C/C(=O)NCc2cc3cc(-c4ccc(C(=O)N5CCC(F)(F)CC5)cn4)cc(C(F)(F)F)c3o2)cn1` [Compound 585, (E)-3-(6-aminopyridin-3-yl)-N-((5-(5-(4,4-difluoropiperidine-1-carbonyl)pyridin-2-yl)-7-(trifluoromethyl)benzofuran-2-yl)methyl)acrylamide] here?
Answer: 380 nM

Question: And the IC50 (MCF-12A cells)?
Answer: 380 nM

Question: And the IC50 (ANBL-6 cells)?
Answer: 1010 nM

Question: What about the IC50 (SW-837 cells) of the same compound?
Answer: 600 nM

Question: And the IC50 (ARPE-19 cells)?
Answer: 780 nM

Question: What about the IC50 (NCI-H889 cells) of the same compound?
Answer: 60 nM

Question: What about the IC50 (HeLa cells) of the same compound?
Answer: 60 nM

Question: And the IC50 (NCI-H187 cells)?
Answer: 70 nM

Question: And the IC50 (BL-2 cells)?
Answer: 180 nM

Question: What about the IC50 (Raji cells) of the same compound?
Answer: 90 nM

Question: What about the IC50 (Colo-201 cells) of the same compound?
Answer: 560 nM

Question: And the IC50 (NCI-H508 cells)?
Answer: 1460 nM

Question: What about the IC50 (PL-45 cells) of the same compound?
Answer: 1010 nM

Question: What about the IC50 (U-266 cells) of the same compound?
Answer: 310 nM

Question: What about the IC50 (SHSY5Y cells) of the same compound?
Answer: 120 nM

Question: What about the IC50 (NCI-H1299 cells) of the same compound?
Answer: 190 nM

Question: And the IC50 (SHP-77 cells)?
Answer: 210 nM

Question: And the IC50 (HEL.92.1.7 cells)?
Answer: 120 nM

Question: And the IC50 (NCI-H2122 cells)?
Answer: 5810 nM

Question: What about the IC50 (PBMC) of the same compound?
Answer: 2200 nM

Question: What about the IC50 (NCI-H1993 cells) of the same compound?
Answer: > 10000 nM

Question: What about the IC50 (DU-4475 cells) of the same compound?
Answer: 90 nM

Question: And the IC50 (K562 cells)?
Answer: 1090 nM

Question: What about the IC50 (DoHH-2 cells) of the same compound?
Answer: 90 nM

Question: What about the IC50 (BT-20 cells) of the same compound?
Answer: 540 nM

Question: What about the IC50 (NCI-H28 cells) of the same compound?
Answer: 200 nM

Question: What about the IC50 (MCF7 cells) of the same compound?
Answer: 700 nM

Question: And the IC50 (MM1R cells)?
Answer: 190 nM

Question: What about the IC50 (HCC-202 cells) of the same compound?
Answer: 1690 nM

Question: And the IC50 (NCI-H2030 cells)?
Answer: 300 nM

Question: And the IC50 (CAPAN-1 cells)?
Answer: 90 nM

Question: What about the “mean tumor volume of Z-138 xenografts” value (Z-138 xenografts; SCID mice, 10, 30, or 60 mg/kg PO daily) of the same compound?
Answer: tumor growth inhibition and even tumor regression

Question: What about the “toxicity (side effects, weight loss)” value (Z-138 xenografts; Z-138 xenograft model, minimal or no side effects or weight loss up to daily dose) of the same compound?
Answer: without major toxicity
